In general, EC50 refers to the concentration that produces a half-maximal response. By half-life is commonly meant how long it takes for the measured level to halve. For orientation: CC50 means the concentration at which the toxic effect on the cells reaches its halfway point.

Where two headings read alike, the source gives them in different places.

From US20250115620A1, “BRIDGED TRICYCLIC CARBAMOYLPYRIDONE COMPOUNDS AND USES THEREOF” (Gilead Sciences, Inc., priority 2022, published 2025) come the findings set out here.

The test system of one data set is pLAI reporter virus. Briefly: microbe, parasite or virus in culture. The format is cell-based, HIV.
For another data set, the system named is E138K/Q148K. Kind of data set: HIV double mutant assay in MT-4 cells. Type of data set: cell-based. As to conditions: E138K/Q148K vs wild type HXB2, MT-4 cells, 5 day incubation. On the procedure:
(§1) The HIV double mutant assay assesses the changes in efficacy of antiviral compounds against viral mutants compared to wild type. Each of the three mutant virus strains in this panel contain two amino acid substitutions ([…], E138K/Q148K and E92Q/N155H) of the parental HXB2. Test compounds and controls were serially diluted and spotted in replicates into 384 well black assay plates using acoustic transfer (Echo). Replicate sets of plates were made for each strain. MT-4 cells were grown in batch, centrifuged and resuspended in fresh CCM media (RPMI w/10% FBS, 1% PS) at 2×10^6 cells/ml. Cells were batch infected with each mutant strain at optimized volumes (currently HXB2 25 ul/ml; […], E138K/Q148K and E92Q/N155H at 40 ul/ml cells). The size of each infection mix was based on number of sample plates to be tested. Each infection mix was transferred into 5 ml closed tubes and nutated rapidly on a shaker at 37 deg. incubator for 1 hour. The infection mixes were then diluted 25× in fresh CCM media then added to assay plates at 40 ul per well using a Viaflo 384 pipettor. After 5 day incubation at 37 degrees in a CO2 incubator, assay plates were processed with Cell-titer glo reagent using a ViaFlo 384 with an addition/mixing program. Plates were read immediately on Envision reader. Assay signals were plotted and dose response curves generated to determine individual compound EC50s. The effect of each mutation was assessed by comparing EC50s of wild type and mutant strains.

In a further data set the test system is G140S/Q148R. Briefly: HIV double mutant assay in MT-4 cells. Type of data set: cell-based. The settings on record: G140S/Q148R vs wild type HXB2, MT-4 cells, 5 day incubation. On the procedure: as §1
Another data set deals with E92Q/N155H. Kind of data set: HIV double mutant assay in MT-4 cells. As to conditions: E92Q/N155H vs wild type HXB2, MT-4 cells, 5 day incubation. The format is cell-based. On the procedure: as §1
The nature of data set [1]: Half life, PK in monkeys after intravenous infusion. The format is in vivo. The settings on record: cynomolgus, monkey, single-dose intravenous infusion for 30 minutes, plasma, read-out: Cyno half-life (converted). On the procedure:
Test compound PK was determined in monkeys (Labcorp, Madison, WI) following a single-dose intravenous infusion for 30 minutes. The dosing vehicle was a mixture of N-methylpyrrolidone, polyethylene glycol 300, and water for intravenous administration in monkeys. […] Nonclinical plasma samples were prepared by addition of 200 μl cold acetonitrile/internal standard solution to 96-well plates containing 50 μl aliquots of each plasma sample. After protein precipitation, each of the supernatants (50 μl) were transferred to clean 96-well plates and diluted with 450 μl of water. The sample injection volume was 2 μl. Samples were analyzed by a multiple reaction monitoring LC-MS/MS method. […] Thermo Fisher Scientific), and the ABSciex QTRAP5500 Mass Spectrometer LC-MS/MS system. […] The following plasma PK parameters were estimated in nonclinical species (as appropriate): observed peak plasma concentration (Cmax), time to reach Cmax (Tmax), last quantifiable plasma concentration (Clast), t1/2, time of Clast (Tlast), area under the plasma concentration-time curve (AUC) from time 0 [NT], AUC from time 0 to infinity (AUCinf), CL, mean residence time (MRT), and volume of distribution at steady state (Vss).

A short description of another data set: in vitro. The settings on record: human, uninfected MT-4 cells.
The next data set has as its system HIV-1 (IIIB). Kind of data set: microbe, parasite or virus in culture. Type of data set: cell-based. As to conditions: read-out: MT4 EC50.
Another data set deals with MT-4 cells. Briefly: Cytotoxicity assay in MT-4 cells. The settings on record: uninfected MT-4 cells.
The mark [2] stands for this setting: Human immunodeficiency virus 1, MT4, 72 h, read-out: RLUC 50% HS EC50.
The mark [3] stands for this setting: Human immunodeficiency virus 1, MT4, 72 h, read-out: RLUC CCM EC50.
Where [4] appears, read: Human immunodeficiency virus 1, IIIB, MT4, 120 h, HIV-1 (IIIB) in MT-4 cells, 5 days incubation, Cell Titer Glo.

For the compound `COC1=NO[C@@]2(CC[C@H](C)N3C[C@H]2n2cc(C(=O)NCc4ccc(F)cc4F)c(=O)c(O)c2C3=O)C1` [Example 40, (3′S,5S,7′R)—N-(2,4-difluorobenzyl)-12′-hydroxy-3-methoxy-3′-methyl-1′,11′-dioxo-1′,4′,5′,11′-tetrahydro-3′H,4H,7′H-spiro[isoxazole-5,6′-[2,7]methanopyrido[1,2-a][1,4]diazonine]-10′-carboxamide], the EC50 with pLAI reporter virus (setting [2]) is 22.5 nM; with pLAI reporter virus (setting [3]) it was 0.2 nM; in the data set with HIV-1 (IIIB) (setting [4]) it was 0.8 nM. Also, the “Double Mutant Shift (fold over wild type)” value is reported as 4× with E138K/Q148K, 5× in the data set with G140S/Q148R and 1× in the data set on E92Q/N155H. The half-life in data set [1] is 12 h. In “in vitro”, this compound showed a CC50 at 5 days of 34100 nM.

`O=C(NCc1ccc(F)cc1F)c1cn2c(c(O)c1=O)C(=O)N1CCCC3(CC3)[C@H]2C1` [Reference Compound C, reference compound]: the EC50 is 2 nM with pLAI reporter virus (setting [2]), 0.25 nM with pLAI reporter virus (setting [3]) and 1.2 nM in the data set on HIV-1 (IIIB) (setting [4]). In addition, the entries for the “Double Mutant Shift (fold over wild type)” value in the data set on E138K/Q148K, with G140S/Q148R and in the data set with E92Q/N155H were 3×, 5× and 2×, respectively.

Turning to “(3′S,5S,7′R)—N-((2,4-difluorophenyl)methyl-d2)-12′-hydroxy-3,3′-dimethyl-1′,11′-dioxo-1′,4′,5′,11′-tetrahydro-3′H,4H,7′H-spiro[isoxazole-5,6′-[2,7]methanopyrido[1,2-a][1,4]diazonine]-10′-carboxamide-N′-^15N [Example 151]”, the concentration giving a half-maximal response (EC50) turned out to be 0.3 nM in the data set with pLAI reporter virus (CCM media (RPMI/10% FBS), MT-4 cells, 3 days, read-out: RLUC CCM EC50); 69.2 nM in the data set on pLAI reporter virus (read-out: RLUC 50% HS EC50, 50% human serum media, MT-4 cells, 3 days); 1.8 nM in the data set with HIV-1 (IIIB) (HIV-1 (IIIB) in MT-4 cells, 5 days incubation, Cell Titer Glo). The compound also registered a CC50 in the data set on MT-4 cells of 13800 nM.

As for `C[C@H]1CCC[C@H]2CN1C(=O)c1c(O)c(=O)c(C(=O)NCc3ccc(F)cc3F)cn12` [Reference Compound D], the EC50 in the data set on pLAI reporter virus (setting [2]) was 7.5 nM; in the data set with pLAI reporter virus (setting [3]) it was 0.22 nM; in the data set with HIV-1 (IIIB) (setting [4]), 1.3 nM. Also, the “Double Mutant Shift (fold over wild type)” value is recorded as 6× in the data set with E138K/Q148K, 5× with G140S/Q148R and 1× in the data set on E92Q/N155H. Further, the half-life in data set [1] is 3 h.

For `O=C(NCc1c(F)cc(F)cc1F)c1cn2c(c(O)c1=O)C(=O)N1CCCC[C@H]2C1` [Reference Compound A], the values for the EC50 with pLAI reporter virus (setting [2]), in the data set with pLAI reporter virus (setting [3]) and in the data set on HIV-1 (IIIB) (setting [4]) were 2 nM, 0.35 nM and 1.1 nM, respectively. For the same compound, the entries for the “Double Mutant Shift (fold over wild type)” value with E138K/Q148K, with G140S/Q148R and with E92Q/N155H were 13×, 10× and 2×, respectively. Also, in data set [1], the half-life was 3 h.

Consider `CCN1O[C@@]2(CC[C@H](C)N3C[C@H]2n2cc(C(=O)NCc4c(F)cc(F)cc4F)c(=O)c(O)c2C3=O)CC1=O` [Example 157, (3′S,5S,7′R)-2-ethyl-12′-hydroxy-3′-methyl-1′,3,11′-trioxo-N-(2,4,6-trifluorobenzyl)-1′,4′,5′,11′-tetrahydro-3′H,7′H-spiro[isoxazolidine-5,6′-[2,7]methanopyrido[1,2-a][1,4]diazonine]-10′-carboxamide], for which the concentration for a half-maximal effect (EC50) in the data set on pLAI reporter virus (setting [2]) was found to be 4.1 nM; in the data set on pLAI reporter virus (setting [3]), 0.3 nM; in the data set on HIV-1 (IIIB) (setting [4]) it was 1.1 nM. This compound also displayed a half-maximal cytotoxic concentration (CC50) at 5 days in “in vitro” of no less than 50000 nM.

Turning to `O=C(NCc1ccc(F)cc1F)c1cn2c(c(O)c1=O)C(=O)N1CCCC[C@H]2C1` [Reference Compound B], the results for the EC50 in the data set on pLAI reporter virus (setting [2]), in the data set on pLAI reporter virus (setting [3]) and with HIV-1 (IIIB) (setting [4]) were 1.1 nM, 0.28 nM and 1.5 nM, respectively. Further, the “Double Mutant Shift (fold over wild type)” value in the data set on E138K/Q148K stood at 18×; in the data set on G140S/Q148R, 12×; in the data set with E92Q/N155H, 3×. In addition, the half-life in data set [1] is 5 h.

As to `CC1=NO[C@@]2(CC[C@H](CF)N3C[C@H]2n2cc(C(=O)NCc4c(F)cc(F)cc4F)c(=O)c(O)c2C3=O)C1` [Example 54, (3′R,5S,7′R)-3′-(fluoromethyl)-12′-hydroxy-3-methyl-1′,11′-dioxo-N-(2,4,6-trifluorobenzyl)-1′,4′,5′,11′-tetrahydro-3′H,4H,7′H-spiro[isoxazole-5,6′-[2,7]methanopyrido[1,2-a][1,4]diazonine]-10′-carboxamide], the values for the EC50 with pLAI reporter virus (setting [2]), in the data set on pLAI reporter virus (setting [3]) and in the data set with HIV-1 (IIIB) (setting [4]) were 53.7 nM, 0.3 nM and 0.7 nM, respectively. Besides, in “in vitro”, half-maximal cytotoxicity (CC50 at 5 days) was put at 27300 nM.

As to `CO[C@@H]1CS[C@@]2(CC[C@H](C)N3C[C@H]2n2cc(C(=O)NCc4c(F)cc(F)cc4F)c(=O)c(O)c2C3=O)O1` (single isomer, unassigned) [170 (peak 4)], the results for the EC50 in the data set on pLAI reporter virus (setting [2]), in the data set on pLAI reporter virus (setting [3]) and with HIV-1 (IIIB) (setting [4]) were 14.5 nM, 0.3 nM and 1.7 nM, respectively. Moreover, it took 33100 nM to reach half-maximal cytotoxicity in “in vitro” (CC50 at 5 days).

With `C[C@H]1CC[C@]2(CC(=O)N(C)O2)[C@H]2CN1C(=O)c1c(O)c(=O)c(C(=O)NCc3c(F)cc(F)cc3F)cn12` [Example 108, (3′S,5S,7′R)-12′-hydroxy-2,3′-dimethyl-1′,3,11′-trioxo-N-(2,4,6-trifluorobenzyl)-1′,4′,5′,11′-tetrahydro-3′H,7′H-spiro[isoxazolidine-5,6′-[2,7]methanopyrido[1,2-a][1,4]diazonine]-10′-carboxamide], the EC50 with pLAI reporter virus (setting [2]) was 7.8 nM; with pLAI reporter virus (setting [3]), 0.5 nM; with HIV-1 (IIIB) (setting [4]), 3.5 nM. In “in vitro”, this compound registered a CC50 at 5 days of no less than 50000 nM.

For `C[C@H]1CC[C@]2(CC(N3CCC3)=NO2)[C@H]2CN1C(=O)c1c(O)c(=O)c(C(=O)NCc3c(F)cc(F)cc3F)cn12` [Example 74, (3′S,5S,7′R)-3-(azetidin-1-yl)-12′-hydroxy-3′-methyl-1′,11′-dioxo-N-(2,4,6-trifluorobenzyl)-1′,4′,5′,11′-tetrahydro-3′H,4H,7′H-spiro[isoxazole-5,6′-[2,7]methanopyrido[1,2-a][1,4]diazonine]-10′-carboxamide], the half-maximal effective concentration (EC50) in the data set on pLAI reporter virus (setting [2]) was 4.9 nM; in the data set on pLAI reporter virus (setting [3]), 0.4 nM; in the data set on HIV-1 (IIIB) (Human immunodeficiency virus 1, IIIB, MT4, 120 h) it was 2.1 nM. This compound also came in with a half-maximal cytotoxic concentration (CC50) at 5 days in the data set “in vitro” of 22300 nM.

For `CC1=NO[C@@]2(CC[C@H](C)N3C[C@H]2n2cc(C(=O)NCc4ccc(F)cc4F)c(=O)c(O)c2C3=O)C1` [Example 1, (3'S,5S,7′R)—N-(2,4-difluorobenzyl)-12′-hydroxy-3,3′-dimethyl-1′,11′-dioxo-1′,4′,5′,11′-tetrahydro-3′H,4H,7′H-spiro[isoxazole-5,6′-[2,7]methanopyrido[1,2-a][1,4]diazonine]-10′-carboxamide], the EC50 came to 92 nM in the data set on pLAI reporter virus (setting [2]), 0.3 nM with pLAI reporter virus (setting [3]), 0.25 nM with pLAI reporter virus (read-out: RLUC CCM EC50) and 0.8 nM with HIV-1 (IIIB) (setting [4]). Moreover, the results for the “Double Mutant Shift (fold over wild type)” value in the data set on E138K/Q148K, with G140S/Q148R and with E92Q/N155H were 3×, 4× and 1×, respectively. The half-life in data set [1] is 29 h. Also, it took 20400 nM to reach half-maximal cytotoxicity in “in vitro” (CC50 at 5 days).

Consider `COC1=NS[C@]2(CC[C@H](C)N3C[C@H]2n2cc(C(=O)NCc4ccc(F)cc4F)c(=O)c(O)c2C3=O)C1` [Example 145, (3′S,5R,7′R)—N-(2,4-difluorobenzyl)-12′-hydroxy-3-methoxy-3′-methyl-1′,11′-dioxo-1′,4′,5′,11′-tetrahydro-3′H,4H,7′H-spiro[isothiazole-5,6′-[2,7]methanopyrido[1,2-a][1,4]diazonine]-10′-carboxamide], for which the half-maximal effective concentration (EC50) in the data set on pLAI reporter virus (setting [2]) amounted to 7.5 nM; with pLAI reporter virus (setting [3]), 1.1 nM; in the data set on HIV-1 (IIIB) (setting [4]), 3.8 nM. Besides, the 50% cytotoxic concentration (CC50) at 5 days in the data set “in vitro” is no less than 50000 nM.
